The target of one assay is T1, Human LPA1 (Homo sapiens, UniProt Q92633).
T1 construct: expressed in transfected cells; host or cells: mouse embryonic fibroblasts (MEF)
The assay is described as follows: Calcium-mobilization assay (FURA-2), human LPA1 transfected cells. The class given is cell-based. The following applies: for EC50 / Emax (% of LPA): mean. As to the method:
(§1) We investigated structure-activity relationships across species, LPAR subtypes and between Rx100 and two known process impurities encountered in manufacture: Rx103 (‘E’ isomer) and Rx200 (oleyl phosphate and impurity, which can be an Rx100 degradant along with oleyl alcohol). Rx100, Rx103, Rx200 and native LPA were investigated at different human LPAR subtypes. In addition, the activity of these compounds was evaluated at LPA2 receptors from the rhesus, rat and mouse species. Human LPA1/2/3 subtypes were transfected into mouse embryonic fibroblasts (MEF) or rat hepatoma cells (RH7777)—both of which are normally non-responsive or null to LPA. Human LPA4 was transfected into Chinese hamster ovary (CHO) cells and LPA5 into the B103 neuroblastoma cell line. […] The B103 rat neuroblastoma cell line is endogenously nonresponsive to LPA but expresses heterologous LPA5 receptors well. […] LPAR activation elicits a G-protein-mediated transient rise in intracellular calcium level that is proportional to the concentration of LPA applied. The intracellular calcium level was quantified by the calcium-selective fluorescent indicator FURA-2 (e.g., increased intracellular calcium surge=increased fluorescence).

For assay [1], the target named is LPA2 receptors from the rhesus (Macaca mulatta, UniProt I2CXV3). The assay is described as follows: Calcium-mobilization assay (FURA-2), rhesus LPA2. The class given is cell-based. As to the method: as §1
Sequence of LPA2 receptors from the rhesus (I2CXV3 1-351): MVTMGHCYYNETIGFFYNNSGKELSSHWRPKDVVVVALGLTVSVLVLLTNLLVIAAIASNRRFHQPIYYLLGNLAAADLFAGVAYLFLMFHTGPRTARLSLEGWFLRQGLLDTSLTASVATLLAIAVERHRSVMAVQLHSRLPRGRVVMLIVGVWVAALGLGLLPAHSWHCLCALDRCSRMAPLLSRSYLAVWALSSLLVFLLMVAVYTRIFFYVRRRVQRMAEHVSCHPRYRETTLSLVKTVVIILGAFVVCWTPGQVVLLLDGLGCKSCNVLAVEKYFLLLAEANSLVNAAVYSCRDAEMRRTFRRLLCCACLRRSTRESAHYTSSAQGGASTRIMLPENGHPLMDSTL
The next assay deals with T2, Human LPA4 (Homo sapiens, UniProt Q99677).
T2 construct: expressed in transfected cells; host or cells: CHO
T2 sequence (Q99677 whole entry): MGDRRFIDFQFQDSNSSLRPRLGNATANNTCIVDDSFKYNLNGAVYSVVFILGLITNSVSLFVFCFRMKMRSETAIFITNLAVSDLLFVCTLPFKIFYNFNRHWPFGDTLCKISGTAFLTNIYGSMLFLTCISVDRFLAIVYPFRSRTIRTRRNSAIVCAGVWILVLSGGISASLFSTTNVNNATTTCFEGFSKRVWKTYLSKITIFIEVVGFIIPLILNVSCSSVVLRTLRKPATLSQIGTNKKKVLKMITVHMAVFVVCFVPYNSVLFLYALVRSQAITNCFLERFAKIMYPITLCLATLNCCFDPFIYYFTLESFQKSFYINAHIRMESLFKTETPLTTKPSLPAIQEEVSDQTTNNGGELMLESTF
The assay is described as follows: Calcium-mobilization assay (FURA-2), human LPA4 in CHO cells. The class given is cell-based. As to the method:
as §1

The target of the next assay is T3, LPA5 (Homo sapiens, UniProt Q9H1C0).
T3 construct: expressed in transfected cells; host or cells: B103 rat neuroblastoma
T3 sequence (Q9H1C0 whole entry): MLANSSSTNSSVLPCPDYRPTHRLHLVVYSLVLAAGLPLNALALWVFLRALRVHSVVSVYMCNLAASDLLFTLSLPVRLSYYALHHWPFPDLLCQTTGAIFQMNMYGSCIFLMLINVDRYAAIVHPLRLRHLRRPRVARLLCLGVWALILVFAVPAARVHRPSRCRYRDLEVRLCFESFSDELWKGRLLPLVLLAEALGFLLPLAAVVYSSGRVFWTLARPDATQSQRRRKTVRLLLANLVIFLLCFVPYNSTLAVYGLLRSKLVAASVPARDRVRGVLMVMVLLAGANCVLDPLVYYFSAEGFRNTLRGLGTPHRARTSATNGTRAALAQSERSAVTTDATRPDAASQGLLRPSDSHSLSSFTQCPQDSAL
The assay is described as follows: Calcium-mobilization assay (FURA-2), LPA5 in B103 neuroblastoma cells. Format: cell-based. As to the method: as §1

In a further assay the test system is Control CHO. The assay is described as follows: Calcium-mobilization assay, untransfected Control CHO cells. The class given is cell-based, Chinese hamster. How it is done:
as §1

Assay [2] deals with LPA2 receptors from the rat (Rattus norvegicus, UniProt A0ABK0LT65). The assay is described as follows: Calcium-mobilization assay (FURA-2), rat LPA2. Format: cell-based. How it is done:
as §1

The subject of assay [3] is lysophosphatidic acid receptor (LPAR). The assay is described as follows: Calcium-mobilization assay, overall statements for all species and LPAR subtypes tested. Format: cell-based.
Description: The compound was medicinally designed as an LPA analog with the goal of decreasing the otherwise rapid metabolism of LPA itself. […] These receptors are ubiquitous by tissue and in those eukaryotes investigated. […] Thus, the mechanism of drug action for GI-ARS protection is activation of the transmembrane G protein-coupled lysophosphatidic acid receptor (LPAR) and, more specifically, the LPAR2 GPCR subtype. The primary pharmacodynamics is that LPAR2 activation leads to a cascade of intracellular events that switch cells from an apoptotic to a repair/regenerative pathway.
as §1
Oleyl alcohol is, of course, a common component of many non-toxic ingested or dermally applied substances.

Another assay addresses T4, Human LPA3 (Homo sapiens, UniProt Q9UBY5).
T4 construct: expressed in transfected cells; host or cells: mouse embryonic fibroblasts (MEF) or rat hepatoma RH7777
T4 sequence (Q9UBY5 1-353): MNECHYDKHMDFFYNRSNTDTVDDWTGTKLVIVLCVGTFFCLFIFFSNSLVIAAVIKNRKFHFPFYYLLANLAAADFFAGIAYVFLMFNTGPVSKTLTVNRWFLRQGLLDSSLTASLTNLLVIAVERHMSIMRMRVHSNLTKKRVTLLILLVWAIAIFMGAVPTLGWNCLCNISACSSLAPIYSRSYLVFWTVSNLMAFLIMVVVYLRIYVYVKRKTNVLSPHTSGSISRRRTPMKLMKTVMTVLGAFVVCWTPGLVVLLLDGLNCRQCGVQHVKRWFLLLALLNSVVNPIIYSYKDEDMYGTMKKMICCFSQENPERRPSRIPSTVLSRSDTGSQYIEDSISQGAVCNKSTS
The assay is described as follows: Calcium-mobilization assay (FURA-2), human LPA3 transfected cells. Format: cell-based. The following applies: for EC50 / Emax (% of LPA): mean. As to the method:
as §1

Assay [4] has as its target T5, LPA2 receptors from the mouse (Mus musculus, UniProt Q9JL06).
T5 construct: expressed in transfected cells
Description: Calcium-mobilization assay (FURA-2), mouse LPA2. Format: cell-based. How it is done:
as §1

Another assay deals with Human LPA2 (Homo sapiens, UniProt Q9HBW0). Description: Calcium-mobilization assay (FURA-2), human LPA2 transfected cells. Format: cell-based. On the set-up: expressed in transfected cells; host or cells: mouse embryonic fibroblasts (MEF) or rat hepatoma RH7777. As to the method:
as §1

The mark [5] stands for this setting: RH7777, read-out: Emax (% of LPA).

Like-named read-outs stand apart in the source and are kept apart here. A value given as a limit tells only on which side of the number the result lay.

T5 sequence (Q9JL06 whole entry): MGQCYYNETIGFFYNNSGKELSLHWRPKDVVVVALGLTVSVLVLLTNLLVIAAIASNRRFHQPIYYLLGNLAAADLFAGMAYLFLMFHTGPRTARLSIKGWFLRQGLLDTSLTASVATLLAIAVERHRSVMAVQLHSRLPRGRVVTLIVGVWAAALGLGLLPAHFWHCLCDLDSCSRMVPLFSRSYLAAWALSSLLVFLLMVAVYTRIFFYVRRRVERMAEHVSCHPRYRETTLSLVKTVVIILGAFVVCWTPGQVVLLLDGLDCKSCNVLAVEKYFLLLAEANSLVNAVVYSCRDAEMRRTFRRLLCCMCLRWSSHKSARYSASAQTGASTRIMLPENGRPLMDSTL
T1 sequence (Q92633 whole entry): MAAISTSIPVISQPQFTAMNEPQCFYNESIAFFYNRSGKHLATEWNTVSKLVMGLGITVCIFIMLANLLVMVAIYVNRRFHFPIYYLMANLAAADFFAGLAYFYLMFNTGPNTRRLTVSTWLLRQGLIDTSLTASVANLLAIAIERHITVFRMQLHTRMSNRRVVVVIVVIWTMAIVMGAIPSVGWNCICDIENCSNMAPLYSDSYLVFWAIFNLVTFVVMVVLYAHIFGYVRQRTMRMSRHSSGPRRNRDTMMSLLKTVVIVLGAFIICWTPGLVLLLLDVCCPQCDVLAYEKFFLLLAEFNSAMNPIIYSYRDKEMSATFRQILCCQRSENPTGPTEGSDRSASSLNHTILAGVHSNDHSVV
Sequence of LPA2 receptors from the rat (A0ABK0LT65 1-348): as the sequence (Q9JL06 whole entry) above, with A153V, A189V, Y211F, M310T, S316H, R321H, A324S, Q327R, R341H counted along it
Sequence of Human LPA2 (Q9HBW0 whole entry): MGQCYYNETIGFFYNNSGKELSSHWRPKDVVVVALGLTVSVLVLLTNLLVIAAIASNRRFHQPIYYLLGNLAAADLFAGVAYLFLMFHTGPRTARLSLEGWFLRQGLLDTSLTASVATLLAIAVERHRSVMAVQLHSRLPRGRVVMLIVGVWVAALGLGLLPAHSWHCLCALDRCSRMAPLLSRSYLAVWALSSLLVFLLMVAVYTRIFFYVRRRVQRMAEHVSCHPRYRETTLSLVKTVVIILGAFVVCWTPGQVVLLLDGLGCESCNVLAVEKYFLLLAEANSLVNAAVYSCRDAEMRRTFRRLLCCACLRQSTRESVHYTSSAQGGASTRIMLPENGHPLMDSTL

As for `CCCCCCCC/C=C/CCCCCCCCOP(O)(O)=S` [Rx103], the EC50 is 367 nM on Human LPA1 (EC50 [nM], LPA1 DKO MEF, human); 1710 nM on Human LPA1 (EC50 [nM], LPA1 RH7777, human); 133 nM in assay [1]; greater than 5000 nM at Human LPA4; 83 nM at LPA5; greater than 5000 nM with Control CHO (Cricetulus griseus, CHO). The EC50 in assay [2] was 133 nM; at Human LPA3 (EC50 [nM], LPA3 DKO MEF, human), 61 nM; at Human LPA3 (EC50 [nM], LPA3 RH7777, human) it was 74 nM; in assay [4], 355 nM; at Human LPA2, 241 nM. The maximal response (Emax) amounted to 75% on Human LPA1 (setting [5]); 90% on Human LPA1 (read-out: Emax (% of LPA)); 90% in assay [1] (read-out: Emax (% of LPA)); 88% on Human LPA4 (CHO, read-out: Emax (% of LPA)); 103% at LPA5 (B103, read-out: Emax (% of LPA)); 12% with Control CHO (Cricetulus griseus, CHO, read-out: Emax (% of LPA)). Further, the maximum response (Emax) in assay [2] (read-out: Emax (% of LPA)) turned out to be 87.6%; on Human LPA3 (setting [5]) it was 77%; at Human LPA3 (read-out: Emax (% of LPA)), 100%; in [4] (read-out: Emax (% of LPA)), 100%; at Human LPA2 (read-out: Emax (% of LPA)), 70%. Besides, the “LPAR activation” value in [3] was “has activity but has a uniformly reduced EC50 and Emax”.
Regarding `CCCCCCCC/C=C\CCCCCCCCOP(=O)(O)O` [Rx200, oleyl phosphate], the “Emax (% of LPA)” value at Human LPA1 (LPA1 DKO MEF, human) was 53 % of LPA; at Human LPA1 (LPA1 RH7777, human) it was 83 % of LPA; in assay [1] (LPA2 DKO MEF, rhesus, mean), “No”; on Human LPA4 (LPA4 CHO, human, mean), 70 % of LPA; on LPA5 (LPA5 B103, human, mean), 100 % of LPA; with Control CHO (Control CHO (untransfected; endogenously expresses LPA1)), 12%. Further, the “Emax (% of LPA)” value in [2] (LPA2 DKO MEF, rat, mean) is listed as “No”; at Human LPA3 (LPA3 DKO MEF, human), 34 % of LPA; at Human LPA3 (LPA3 RH7777, human), 61 % of LPA; in assay [4] (LPA2 DKO MEF, mouse, mean), “No”; on Human LPA2 (LPA2 DKO MEF, human, mean), “No”. For the same compound, the EC50 was 1360 nM at Human LPA1 (LPA1 DKO MEF, human, read-out: EC50); 328 nM on Human LPA1 (LPA1 RH7777, human, read-out: EC50); 737 nM on Human LPA4 (LPA4 CHO, human, mean, read-out: EC50); 167 nM on LPA5 (LPA5 B103, human, mean, read-out: EC50); 965 nM in the assay on Control CHO (Control CHO (untransfected; endogenously expresses LPA1), read-out: EC50); greater than 5000 nM on Human LPA3 (LPA3 DKO MEF, human, read-out: EC50). Further, the 50% effective concentration (EC50) at Human LPA3 (LPA3 RH7777, human, read-out: EC50) was 747 nM. Besides, the “EC50 [nM]” value is “No” in assay [1] (LPA2 DKO MEF, rhesus, mean); “No” in assay [2] (LPA2 DKO MEF, rat, mean); “No” in [4] (LPA2 DKO MEF, mouse, mean); “No” at Human LPA2 (LPA2 DKO MEF, human, mean). In addition, the “LPAR activation” value in assay [3] was “virtually inactive”.
